Assay [1] concerns HER2-overexpressing human esophagus cancer cell line OE19. As to the kind of experiment: OE19 subcutaneous xenograft, zongertinib with trastuzumab. It is filed as in vivo, NMRI-Foxn1^nu mice. To be noted: day 14; for Regressions >30%: tumors regressed/total (partial response). The procedure:
The study is performed in human esophagus cancer cell line OE19 grown as subcutaneous xenografts in NMRI-Foxn1^nu mice. Day 1 was the first day, day 14 the last day of treatment and final day of analysis.
OE19 is obtained and cultured as described in Example 3 (see paragraph 3.1.2).
Mice in the control group are treated with vehicle, i.e.: • (iii) 0.5% Natrosol, administered once daily for the duration of the treatment intragastrally by gavage needle with a volume of 10 ml/kg body weight; and • (iv) saline (0.9%), administered once weekly intraperitoneally with a volume of 10 ml/kg.
Tumor volumes and side effects are monitored as described in Example 1 (see paragraph 1.1.6), except that control animals are sacrificed when the median tumor volume of the group reaches a size of approximately 640 mm^3.
The statistical evaluation of the tumor volume and the body weight is conducted on day 14 (last day of the study). Apart from this, statistical analysis was performed as described in Example 1 (see paragraph 1.1.7), with no evaluation of tumor growth after stop of treatment.

Assay [2] deals with HER2-overexpressing human breast cancer cell line SUM190PT. Type of assay: in vivo. How it is done: The study is performed in human breast cancer cell line SUM190PT grown as subcutaneous xenografts in NMRI-Foxn1^nu mice. Day 1 was the first day, day 21 the last day of treatment and final day of analysis.
Cells are obtained and cultured as described in Example 8 (see paragraph 8.1.2).
Capecitabine can be purchased from Roche Pharma AG. Capecitabine is suspended with 0.5% Natrosol and administered intragastrally with a volume of 10 ml/kg.
Tumor volumes and side effects are monitored as described in Example 1 (see paragraph 1.1.6), except that control animals are sacrificed when the median tumor volume of the group reaches a size of approximately 540 mm^3.
(§1) The statistical evaluation of the tumor volume and the body weight is conducted on day 21 (last day of the study). Apart from this, statistical analysis was performed as described in Example 1 (see paragraph 1.1.7), with no evaluation of tumor growth after stop of treatment.

Assay [3] concerns HER2-overexpressing human breast cancer cell line BT-474. Type of assay: in vivo. As to conditions: alone or combined. The procedure:
The study is performed in human breast cancer cell line BT-474 grown as orthotopic xenografts in NMRI-Foxn1^nu mice. Day 1 was the first day, day 42 the last day of treatment and final day of analysis.
BT-474 is a HER2-overexpressing human breast cancer cell line that can be obtained from ATCC (lot #61136823). Cells are cultured in T75, T175 and 5-Layer tissue culture flasks at 37° C. and 5% CO2. The medium used is Hybri-Care (ATCC, 46-X) supplemented with 1.5 g/L sodium bicarbonate (GIBCO, Ref.: 25080-060) and 10% FCS (Cytiva HyClone Characterized FBS, SH30084.03n). Cultures are split twice weekly with a ratio of 1:2-1:3.
To establish subcutaneous tumors, BT-474 cells are harvested by centrifugation, washed and resuspended in PBS+5% FCS at 5×10^7 cells/ml. […] cell suspension containing 5×10^6 cells is injected orthotopically into the right mammary fat pad of isoflurane anesthetized mice (1 site per mouse).
Pertuzumab can be purchased from Roche Pharma AG. Pertuzumab is diluted with saline (0.9%) and administered intraperitoneally with a volume of 10 ml/kg.
Mice in the control group are treated with vehicle, i.e.: • (i) 0.5% Natrosol, administered once daily for the duration of the treatment intragastrally by gavage needle with a volume of 10 ml/kg body weight; and • (ii) saline (0.9%), administered once every 3 weeks intravenously into the tail vein with a volume of 5 ml/kg; and • (iii) saline (0.9%), administered once every week intraperitoneally with a volume of 10 ml/kg.
Tumor volumes and side effects are monitored as described in Example 1 (see paragraph 1.1.6), except that control animals are sacrificed when the median tumor volume of the group reaches a size of approximately 470 mm^3.
The statistical evaluation of the tumor volume and the body weight is conducted on day 42 (last day of the study). Apart from this, statistical analysis was performed as described in Example 1 (see paragraph 1.1.7), with no evaluation of tumor growth after stop of treatment.

Assay [4] relates to HER2-overexpressing human NSCLC cell line Calu-3. As to the kind of experiment: Calu-3 subcutaneous xenograft, zongertinib with trastuzumab and/or pertuzumab. It is filed as in vivo, CB-17/Icr-Prkdc^scid mice. To be noted: day 42, zongertinib 20 mg/kg qdx42 p.o., trastuzumab 20 mg/kg q7dx6 i.p., pertuzumab 20 mg/kg q7dx6 i.p., alone or combined. The procedure:
The study is performed in human NSCLC cell line Calu-3 grown as subcutaneous xenografts in CB-17/Icr-Prkdc^scid mice. Day 1 was the first day, day 42 the last day of treatment and final day of analysis.
Calu-3 is a HER2-overexpressing human NSCLC cell line that can be obtained from ATCC (lot 614492062). Cells are cultured in T75, T175 and 5-Layer tissue culture flasks at 37° C. and 5% CO2. The medium used is EMEM (Lonza BE12-662F) supplemented with 10% FCS (Cytiva HyClone Characterized FBS, SH30084.03n), 2 mM Glutamax (Gibco 35050-038), 0.5 mM sodium pyruvate (Sigma S8636). Cultures are split once weekly with a ratio of 1:1.5-1:2.
To establish subcutaneous tumors, Calu-3 cells are harvested by centrifugation, washed and resuspended in PBS+5% FCS at 7×10^7 cells/ml. 50 μl cell suspension containing 3.5×10^6 cells is injected subcutaneously into the right flank of mice (1 site per mouse).
Mice in the control group are treated with vehicle, i.e.: • (i) 0.5% Natrosol, administered once daily for the duration of the treatment intragastrally by gavage needle with a volume of 10 ml/kg body weight; and • (ii) saline (0.9%), administered once every week intraperitoneally with a volume of 10 ml/kg.
Tumor volumes and side effects are monitored as described in Example 1 (see paragraph 1.1.6).
as §1

The mark [5] stands for this setting: zongertinib 20 mg/kg qdx14 p.o., trastuzumab 20 mg/kg q7dx2 i.p., alone or combined.

Each structure is given as a SMILES string.

Consider `C=CC(=O)NC1CCN(c2ncc3ncnc(Nc4ccc(Oc5ccc6c(c5)ncn6C)c(C)c4)c3n2)CC1` [Zongertinib, N-{1-[8-({3-methyl-4-[(1-methyl-1H-1,3-benzodiazol-5-yl)oxy]phenyl}amino)-[1,3]diazino [5,4-d]pyrimidin-2-yl]piperidin-4-yl}prop-2-enamide], for which the stable disease result in assay [1] (number of tumors out of 8, zongertinib 20 mg/kg qdx14, trastuzumab 20 mg/kg q7dx2, monotherapies) is “no stable disease”. Besides, the “Regressions >30%” value is on record as 0/8 in assay [1] (setting [5]); “no partial response” in assay [1] (zongertinib 20 mg/kg qdx14 p.o., trastuzumab 20 mg/kg q7dx2 i.p., alone or combined, listed as zongertinib); 0/8 in assay [2] (day 21, tumors regressed/total (partial response), zongertinib 10 mg/kg qdx21 p.o., capecitabine 400 mg/kg qdx21 p.o., trastuzumab 20 mg/kg q7dx3 i.p., alone or combined); 0/8 in assay [3] (day 42, tumors regressed/total (partial response), zongertinib 10 mg/kg qdx42 p.o., T-DXd 1 mg/kg q21dx2 i.v., pertuzumab 20 mg/kg q7dx6 i.p.); 0/10 in assay [4] (tumors regressed/total (partial response)). In addition, the TGI in assay [1] (setting [5]) is listed as 80%; in assay [2] (day 21, zongertinib 10 mg/kg qdx21 p.o., capecitabine 400 mg/kg qdx21 p.o., trastuzumab 20 mg/kg q7dx3 i.p., alone or combined) it was 53%; in assay [3] (day 42, zongertinib 10 mg/kg qdx42 p.o., T-DXd 1 mg/kg q21dx2 i.v., pertuzumab 20 mg/kg q7dx6 i.p.) it was 70%; in assay [4], 64%. The “effect on tumor growth (median tumor volumes over time)” value in assay [2] (zongertinib 10 mg/kg qdx21, capecitabine 400 mg/kg qdx21, trastuzumab 20 mg/kg q7dx3, alone or triple combination) was “delayed tumor growth but did not shrink tumors”; in assay [3] (zongertinib 10 mg/kg qdx42, T-DXd 1 mg/kg q21dx2, pertuzumab 20 mg/kg q7dx6) it was “delayed tumor growth, but median tumor volumes increased in the course of the experiment”. For the same molecule, the “stable disease (tumors remained stable)” value in assay [3] (day 42, zongertinib 10 mg/kg qdx42, T-DXd 1 mg/kg q21dx2) is 2 out of 8.

The values above are taken from patent US20250228858A1, “ANTI-CANCER COMBINATION THERAPY” (Boehringer Ingelheim International GmbH, priority 2023, published 2025).
